Laboratory results published in ChEMBL document CHEMBL5385935, “Structural Characterization and Rat Aortic Vascular Reactivity of Bradykinin-Potentiating Peptides (BPPs) from the Snake Venom of Bothrops moojeni from Delta do Parnaíba Region, Brazil” (2024).
Non-standard residues stand in square brackets, D forms with d. Residues, ends and D or L forms follow the SMILES beside them. pGlu = O=C1CC[C@@H](C(=O)O)N1

How the values were obtained:
Thoracic aorta [1] = test: Vasorelaxant activity in Wistar rat endothelium-functional thoracic aorta assessed as reduction in phenylephrine-induced isometric contraction by measuring maximal efficacy relative to control
Thoracic aorta [2] = test: Vasorelaxant activity in Wistar rat endothelium-functional thoracic aorta assessed as reduction in phenylephrine-induced isometric contraction; assay type: tissue-based

Compound | Emax (Thoracic aorta [1]) [%] | Activity (Thoracic aorta [2])
CC[C@H](C)[C@H](NC(=O)[C@H](CCC(=O)O)NC(=O)[C@@H]1CCCN1C(=O)CNC(=O)[C@@H]1CCCN1C(=O)[C@H](CCCNC(=N)N)NC(=O)[C@@H]1CCCN1C(=O)[C@H](Cc1c[nH]c2ccccc12)NC(=O)CNC(=O)CNC(=O)[C@@H]1CCC(=O)N1)C(=O)N1CCC[C@H]1C(=O)N1CCC[C@H]1C(=O)O ([pGlu]GGWPRPGPEIPP-OH) | 18.3 | Dose-Dependent Effect
CC(C)[C@H](NC(=O)[C@H](CCCCN)NC(=O)[C@@H]1CCCN1C(=O)CNC(=O)[C@@H]1CCCN1C(=O)[C@H](Cc1c[nH]c2ccccc12)NC(=O)[C@H](CCCCN)NC(=O)[C@@H]1CCC(=O)N1)C(=O)N1CCC[C@H]1C(=O)N1CCC[C@H]1C(=O)O ([pGlu]KWPGPKVPP-OH) | 37.5 | Dose-Dependent Effect
CC[C@H](C)[C@H](NC(=O)[C@H](CCC(=O)O)NC(=O)[C@@H]1CCCN1C(=O)CNC(=O)[C@@H]1CCCN1C(=O)[C@H](CCCNC(=N)N)NC(=O)[C@@H]1CCCN1C(=O)[C@H](Cc1c[nH]c2ccccc12)NC(=O)[C@H](CCCCN)NC(=O)[C@@H]1CCC(=O)N1)C(=O)N1CCC[C@H]1C(=O)N1CCC[C@H]1C(=O)O ([pGlu]KWPRPGPEIPP-OH) | 32.8 | Dose-Dependent Effect
